# Measurements from article PMC7356940, “Comparison between Colistin Sulfate Dry Powder and Solution for Pulmonary Delivery” (Pharmaceutics, 2020).
# Counter-ions that a name gives are not always drawn. Where a SMILES comes first, the peptide text is derived from it. Bridges are numbered along the chain shown (N, C = ends). [ ]: non-standard residue; d: D form. The star is where a group is joined. X1 = CC[C@H](C)CCCCC(=O)*; Dab = NCC[C@H](N)C(=O)O
# Assays:
# [1] = previous studies; cited from earlier work
# Procedure: The day before the experiment polyethylene catheters were implanted into the femoral artery of anesthetized rats. […] Accordingly, arterial blood samples were collected at 0, 0.25, 0.5, 1, 2, 3, and 4 h after pulmonary administration. Plasma was obtained and frozen at −80 °C.
# [2] = Plasma and ELF pharmacokinetics after intratracheal administration, simultaneous PK modeling; settings: male, Sprague–Dawley, rat, in vivo, rats, 0.35 mg·kg^−1, whatever the formulation used
# Procedure: In vivo experiments were undertaken in compliance with EC Directive 2010/63/EU after agreement by a local ethics committee. Male Sprague–Dawley rats (n = 68) from Janvier Laboratories (Le Genest-St.-Isle, France) with weights of 324 ± 24 g (mean ± SD) were used. Animals were acclimatized for 5 days prior to experiments. They always had free access to food and water.
# The target COLI dose delivered was 0.35 mg kg^−1 (base form). This dose was previously used in our lab to investigate the pharmacokinetic properties of colistin following intratracheal administration of colistin sulfate solution in rats. […] The insufflator was weighed with a 0.01 mg accuracy scale (Sartorius KB BA100) before and after insufflation to determine the exact amount of powder delivered, and the dose of colistin administered was calculated based on the animal’s weight. […]
# Bronchoalveolar lavage fluid (BALF) collection was performed according to methods previously described. […] COLI and urea concentrations were determined in both plasma and BALF. […] Therefore, the COLI concentration in ELF(CELF) was calculated using Equation 1 from measured COLI concentrations in BALF (CBAL) by using urea as a marker of dilution. CELF = CBAL (Ureaplasma/UreaBAL)(1) where UreaBAL and Ureaplasma correspond to the concentrations of urea determined in BALF and plasma. […]
# [3] = system: Calu-3 cell epithelium model; assay: Apical-to-basolateral COLI transport across Calu-3 monolayers; type: in vitro ADME
# Procedure: (§1) Calu-3 cells were purchased from the American Type Culture Collection (Manassas, VA, USA). The cells were cultured in DMEM/Ham’s F12 (1/1) (PanBiotech) supplemented with L-glutamine (2 mM), fetal calf serum (10% v/v), and incubated at 37 °C under 90–95% of RH and 5% v/v of CO2 in the air.
# (§2) Samples were taken after 60 min at 37 °C.
# (§3) The determination of COLI plasma concentrations was performed based on a validated LC-MS/MS method previously described. The chromatography was performed on an Alliance 2695 system (Waters, France) with a Jupiter 300-Å column (5.0 µm, 50 mm, 2.0-mm i.d.; Waters, St.-Quentin en Yvelines, France) and a mobile phase (flow rate 0.2 mL/min) consisting of 0.1% (v/v) formic acid in acetonitrile–0.1% formic acid in water (25:75 v/v). The mass spectrometer Micromass Quattro microAPI (Waters, France) was used in the positive/ion mode. The calibration standard curve was prepared with seven samples in rat plasma with COLI base concentrations ranging between 0.0097 and 10 µg·mL^−1. For analysis of COLI in BALF and in the medium used for the COLI transport experiments, 150 µL of sample was mixed with 100 µL of plasma and analyzed as for plasma.
# [4] = as above; type: in vitro ADME; settings: human; Calu-3, air-interface 15 days, apical-to-basolateral, COLI 100 mg/L (COLI or dissolved INU-COLI particles), HBSS/10 mM HEPES pH 7.4, 6 h, LC-MS/MS; read-out: COLI apparent permeability (Papp)
# Procedure: as §1, §2, §3
# [5] = system: Calu-3 cell epithelium model; settings: cited from earlier work
# Description: COLI Papp changed as a function of COLI concentration in the Calu-3 cell monolayer apical side (Figure 5). […] This value was consistent with a previous determination (0.42 × 10^−7 cm·s^−1).
# [6] = cited from earlier work
# Description: Due to its low permeability across the lung–blood barrier, colistin methanesulfonate (CMS) is one of only four antibiotics currently used to treat Pseudomonas aeruginosa lung infections by inhalation. CMS is an anionic prodrug of colistin (COLI), which is a cationic lipopeptide mix composed mainly of two molecules: colistin A and B. Inhaled COLI therapy is almost always conducted by means of nebulization of CMS instead of the cationic COLI since the use of the latter can lead to more side effects, such as bronchoconstriction, throat irritation, and cough.
# [7] = fixed in the PK model; cited from earlier work
# Description: Plasma and ELF COLI concentrations versus time were simultaneously analyzed by a nonlinear mixed-effects method with S-ADAPT software (v 1.52, Biomedical Simulations Resource (BMSR), Los Angeles, USA) with S-ADAPT TRAN translator [19]. The structural model (Appendix C, Figure A3) used for data analysis has been developed in a previous study to fit plasma and ELF COLI concentrations after COLI intravenous administrations and solution nebulization to rats. Briefly, the systemic pharmacokinetics of COLI were described by a two-compartment model, characterized by a central compartment (Vc ...
# P. aeruginosa = settings: cited from earlier work
# Description: However, CMS is not an optimal p ...
Molecule,plasma COLI half-life [1] [min],Cmax [2] [ng/mL],Tmax [2] [min],"fold increase in COLI Papp ([3]; Calu-3, COLI concentration changed from 100 to 4000 mg/L) [fold]","fold increase in COLI Papp ([3]; Calu-3 A-B, 6 h, COLI concentration increased to 1000 mg/L (from 100 mg/L)) [fold]","additional fold increase in COLI Papp ([3]; Calu-3 A-B, 6 h, further increase in COLI concentration to 4000 mg/L (from 1000 mg/L)) [fold]","Papp A→B at 6 h, 100 mg/L [4] [×10⁻⁶ cm/s]","COLI Papp, previous determination [5]","COLI concentrations measured in the ELF ([6]; patients, six hours after inhalation of nebulized CMS solutions)",COLI unbound plasma fraction [7] [%],activity against P. aeruginosa (P. aeruginosa),"fraction of the CMS dose converted into COLI in the lung ([6]; human, in vivo)"
"CC[C@H](C)CCCCC(=O)N[C@@H](CCN)C(=O)N[C@H](C(=O)N[C@@H](CCN)C(=O)N[C@H]1CCNC(=O)[C@H]([C@@H](C)O)NC(=O)[C@H](CCN)NC(=O)[C@H](CCN)NC(=O)[C@H](CC(C)C)NC(=O)[C@@H](CC(C)C)NC(=O)[C@H](CCN)NC1=O)[C@@H](C)O [COLI, Colistin sulfate salt] (X1-[Dab]T[Dab][Dab][Dab][dL]L[Dab][Dab]T; lactam 4-C)",30 to 40,330,30,10,4,2.5,0.043 ± 0.011,0.42 10^−7 cm·s^−1,greater than 1000 mg/L,45,,
colistin methanesulfonate [CMS],,,,,,,,,,,inactive,1.4 % (w/w)
